Values of other authors as cited in patent publication US20130267590A1, “RETIGABINE COMPOSITIONS” (Dr. Reddy's Laboratories Limited, priority 2011, published 2013).
Counter-ions that a name gives are not always drawn.

Legend:
[1] = tested on: KCNQ (Kv7.2 to 7.5) family of ion channels; conditions: in vitro

SMILES	storage stability (medium to long-term storage at −18° C.)	oxidation stability (contact with air)	effect on transmembrane potassium currents mediated by KCNQ channels [1]
CCOC(=O)Nc1ccc(NCc2ccc(F)cc2)cc1N [dihydrochloride salt of retigabine]	unstable	–	–
CCOC(=O)Nc1ccc(NCc2ccc(F)cc2)cc1N [retigabine, ethyl 2-amino-4-(4-fluorobenzylamino) phenylcarbamate]	–	oxidize upon contact with air	enhances transmembrane potassium currents
